# Like-named read-outs stand apart in the source and are kept apart here.
# Assays:
# Human P2Y12 receptor = molecular target: T1, Human P2Y12 receptor (Homo sapiens, UniProt Q9H244); assay: Human P2Y12 receptor cell membrane binding assay with [3H] 2-Mes-ADP
# T1 construct: expressed in transfected cells; host or cells: HEK cells
# Outline: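 Membranes from HEK cells expressing human P2Y12 were incubated with compound and 1 nM [3H]2-MeS-ADP for 1 h at room temperature. Bound radioactivity was collected by GF/B filtration.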
# [1] = test system: Human platelet aggregation caused by ADP; assay: Inhibition of ADP-induced platelet aggregation (Mimic-human PRP); assay type: cell-based; conditions: 20 μM ADP, human platelet concentrate diluted with PPP, absorption at 595 nm
# Outline: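 Human PRP diluted with PPP to 3–4×10^8 platelets/mL was preincubated 20 min at room temperature with compound (0.01–30 μM, DMSO), then stimulated with 20 μM ADP. Aggregation read as A595 increase at 3 min versus 0 and 20 μM ADP controls; Ki from sigmoidal non-linear regression.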
# [2] = 1 nM [3H] 2-Mes-ADP, membranes of HEK cells expressing P2Y12 receptor, read-out: Binding activity (IC50)
# T1 sequence (Q9H244 whole entry): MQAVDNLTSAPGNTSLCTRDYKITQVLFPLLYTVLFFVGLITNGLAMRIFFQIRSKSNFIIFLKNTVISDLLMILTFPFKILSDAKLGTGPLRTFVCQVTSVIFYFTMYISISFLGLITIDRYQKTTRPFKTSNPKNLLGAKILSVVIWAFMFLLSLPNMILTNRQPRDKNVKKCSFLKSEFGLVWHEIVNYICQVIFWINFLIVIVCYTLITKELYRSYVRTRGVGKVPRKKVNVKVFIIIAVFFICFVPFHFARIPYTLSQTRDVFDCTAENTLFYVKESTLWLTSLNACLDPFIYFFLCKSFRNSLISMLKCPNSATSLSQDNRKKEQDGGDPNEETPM
SMILES,IC50 (Human P2Y12 receptor; [2]),Ki [1],IC50 (Human P2Y12 receptor)
"CCCc1cc2c(N3CCn4c(nnc4C(F)(F)F)C3)nc(CO)nc2s1 [Example 4-19, [6-Propyl-4-(3-trifluoromethyl-5,6-dihydro-8H-[1,2,4]triazolo[4,3-a]pyrazin-7-yl)-thieno[2,3-d]pyrimidin-2-yl]methanol]",0.5 µM,0.25 µM,–
"CCCc1cc2c(N3CCn4c(nnc4C(F)(F)F)C3)nc(-c3nnc(-c4ccccc4)o3)nc2s1 [Example 4-33, 7-[2-(5-Phenyl-[1,3,4]oxadiazol-2-yl)-6-propyl-thieno[2,3-d]pyrimidin-4-yl]-3-trifluoromethyl-5,6,7,8-tetrahydro-[1,2,4]triazolo[4,3-a]pyrazine]",0.075 µM,0.1 µM,–
"CCCc1cc2c(N3CCn4c(nnc4C(F)(F)F)C3)nc(OCCC(=O)OCOC(=O)C(C)(C)C)nc2s1 [Example 3-13, 2,2-Dimethyl-propionic Acid 3-[6-propyl-4-(3-trifluoromethyl-5,6-dihydro-8H-[1,2,4]triazolo[4,3-a]pyrazin-7-yl)-thieno[2,3-d]pyrimidin-2-yloxy]-propionyloxymethyl ester]",0.41 µM,0.43 µM,–
"CCCc1cc2c(N3CCn4c(nnc4C(F)(F)F)C3)nc(-c3nc(-c4ccccc4)no3)nc2s1 [Example 4-28, 7-[2-(3-Phenyl-[1,2,4]oxadiazol-5-yl)-6-propyl-thieno[2,3-d]pyrimidin-4-yl)-3-trifluoromethyl-5,6,7,8-tetrahydro-[1,2,4]triazolo[4,3-a]pyrazine]",0.33 µM,0.67 µM,–
"CCCc1cc2c(N3CCn4c(nnc4C(F)(F)F)C3)nc(OCc3nc(CC(=O)OCC)co3)nc2s1 [Example 3-18, {2-[6-Propyl-4-(3-trifluoromethyl-5,6-dihydro-8H-[1,2,4]triazolo[4,3-a]pyrazin-7-yl)-thieno[2,3-d]pyrimidin-2-yloxymethyl]-oxazol-4-yl}-acetic acid ethyl ester]",0.4 µM,4.3 µM,–
"CCCc1cc2c(N3CCn4c(nnc4C(F)(F)F)C3)nc(N3CCC[C@@H]3C(=O)O)nc2s1 [Example 1-54, (R)-1-[6-Propyl-4-(3-trifluoromethyl-5,6-dihydro-8H-[1,2,4]triazolo[4,3-a]pyrazin-7-yl)-thieno[2,3-d]pyrimidin-2-yl]-pyrrolidine-2-carboxylic acid]",0.143 µM,0.13 µM,–
"CCCc1cc2c(N3CCn4c(C)nnc4C3)nc(OCC(O)CO)nc2s1 (stereo not shown) [Example 6-15, 3-[4-(3-Methyl-5,6-dihydro-8H-[1,2,4]triazolo[4,3-a]pyrazin-7-yl)-6-propyl-thieno[2,3-d]pyrimidin-2-yloxy]-propane-1,2-diol]",0.4 µM,0.19 µM,–
"CCCc1nc2c(N3CCn4c(nnc4C(F)(F)F)C3)nc(N3CCNC(=O)C3)nc2s1 [Example 5-4, 4-[2-Propyl-7-(3-trifluoromethyl-5,6-dihydro-8H-[1,2,4]triazolo[4,3-a]pyrazin-7-yl)-thiazolo[5,4-d]pyrimidin-5-yl]-piperazin-2-one]",0.072 µM,0.057 µM,–
"CCCc1cc2c(N3CCn4c(nnc4C(F)(F)F)C3)nc(N3CCC(C(=O)NS(=O)(=O)Cc4ccccc4)CC3)nc2s1 [Example 1-127, C-Phenyl-N-{1-[6-propyl-4-(3-trifluoromethyl-5,6-dihydro-8H-[1,2,4]triazolo[4,3-a]pyrazin-7-yl)-thieno[2,3-d]pyrimidin-2-yl]-piperidine-4-carbonyl}-methanesulfonamide]",0.1 µM,0.9 µM,–
"CCCc1cc2c(N3CCn4c(nnc4C(F)(F)F)C3)nc(C(=O)N3CCCC(C(=O)OCC)C3)nc2s1 (stereo not shown) [Example 4-14, 1-[6-Propyl-4-(3-trifluoromethyl-5,6-dihydro-8H-[1,2,4]triazolo[4,3-a]pyrazin-7-yl)thieno[2,3-d]pyrimidine-2-carbonyl]piperidine-3-carboxylic acid ethyl ester]",1.29 µM,0.46 µM,–
"CCCc1cc2c(N3CCn4c(nnc4C(F)(F)C(F)(F)F)C3)nc(N3CCNCC3)nc2s1 [Example 6-5, 3-Pentafluoroethyl-7-(2-piperazin-1-yl-6-propyl-thieno[2,3-d]pyrimidin-4-yl)-5,6,7,8-tetrahydro-[1,2,4]triazolo[4,3-a]pyrazine]",0.266 µM,0.94 µM,–
"CCCc1cc2c(N3CCn4c(nnc4C(F)(F)F)C3)nc(Nc3nc(C(=O)O)cs3)nc2s1 [Example 1-132, 2-[6-Propyl-4-(3-trifluoromethyl-5,6-dihydro-8H-[1,2,4]triazolo[4,3-a]pyrazin-7-yl)thieno[2,3-d]pyrimidin-2-ylamino]thiazole-4-carboxylic acid]",0.047 µM,0.1 µM,–
"CCCc1cc2c(N3CCn4c(nnc4C(F)(F)F)C3)nc(C(=O)N3CCCC(C(=O)O)C3)nc2s1 (stereo not shown) [Example 4-15, 1-[6-Propyl-4-(3-trifluoromethyl-5,6-dihydro-8H-[1,2,4]triazolo[4,3-a]pyrazin-7-yl)thieno[2,3-d]pyrimidine-2-carbonyl]piperidine-3-carboxylic acid]",0.63 µM,0.69 µM,–
"CCCc1cc2c(N3CCn4c(nnc4C(F)(F)F)C3)nc(OC3CCN(C)C3)nc2s1 (stereo not shown) [Example 3-7, 7-[2-(1-Methyl-pyrrolidin-3-yloxy)-6-propyl-thieno[2,3-d]pyrimidin-4-yl]-3-trifluoromethyl-5,6,7,8-tetrahydro-[1,2,4]triazolo[4,3-a]pyrazine]",0.54 µM,0.3 µM,–
"CCCc1cc2c(N3CCn4c(nnc4C(F)(F)F)C3)nc(Oc3ccc(CCC(=O)O)cc3)nc2s1 [Example 3-42, 3-{4-[6-Propyl-4-(3-trifluoromethyl-5,6-dihydro-8H-[1,2,4]triazolo[4,3-a]pyrazin-7-yl)-thieno[2,3-d]pyrimidin-2-yloxy]-phenyl}-propionic acid]",0.25 µM,0.66 µM,–
"CCc1cc2c(N3CCn4c(C)nnc4C3)nc(OCC(O)CO)nc2s1 (stereo not shown) [Example 6-13, 3-[6-Ethyl-4-(3-methyl-5,6-dihydro-8H-[1,2,4]triazolo[4,3-a]pyrazin-7-yl)-thieno[2,3-d]pyrimidin-2-yloxy]-propane-1,2-diol]",2.46 µM,0.716 µM,–
"CCCc1cc2c(N3CCn4c(nnc4C(F)(F)F)C3)nc(NCCO)nc2s1 [Example 1-10, 2-[6-Propyl-4-(3-trifluoromethyl-5,6-dihydro-8H-[1,2,4]triazolo[4,3-a]pyrazin-7-yl)-thieno[2,3-d]pyrimidin-2-ylamino]-ethanol]",0.11 µM,0.178 µM,–
"CCCc1cc2c(N3CCn4c(nnc4C(F)(F)F)C3)nc(Oc3ccc(C#N)cc3)nc2s1 [Example 3-38, 4-[6-Propyl-4-(3-trifluoromethyl-5,6-dihydro-8H-[1,2,4]triazolo[4,3-a]pyrazin-7-yl)-thieno[2,3-d]pyrimidin-2-yloxy]-benzonitrile]",0.179 µM,2.2 µM,–
"CCCc1cc2c(N3CCn4c(nnc4C(F)(F)C(F)(F)F)C3)nc(OCC(O)CO)nc2s1 (stereo not shown) [Example 6-8, 3-[4-(3-Pentafluoroethyl-5,6-dihydro-8H-[1,2,4]triazolo[4,3-a]pyrazin-7-yl)-6-propyl-thieno[2,3-d]pyrimidin-2-yloxy]-propane-1,2-diol]",0.13 µM,0.095 µM,–
"CCCc1cc2c(N3CCn4c(nnc4C(F)(F)F)C3)nc(-c3nc(CC(=O)O)cs3)nc2s1 [Example 4-52, {2-[6-Propyl-4-(3-trifluoromethyl-5,6-dihydro-8H-[1,2,4]triazolo[4,3-a]pyrazin-7-yl)thieno[2,3-d]pyrimidin-2-yl]thiazol-4-yl}acetic acid]",0.014 µM,0.038 µM,–
"CCCc1cc2c(N3CCn4c(nnc4C(F)(F)F)C3)nc(N3CC3C(=O)OC)nc2s1 (stereo not shown) [Example 1-96, 1-[6-Propyl-4-(3-trifluoromethyl-5,6-dihydro-8H-[1,2,4]triazolo[4,3-a]pyrazin-7-yl)-thieno[2,3-d]pyrimidin-2-yl]-aziridine-2-carboxylic acid methyl ester]",–,0.021 µM,0.63 µM
"CCCc1cc2c(N3CCn4c(nnc4C(F)(F)F)C3)nc(N3CCCC(CO)C3)nc2s1 (stereo not shown) [Example 1-29, {1-[6-Propyl-4-(3-trifluoromethyl-5,6-dihydro-8H-[1,2,4]triazolo[4,3-a]pyrazin-7-yl)-thieno[2,3-d]pyrimidin-2-yl]-piperidin-3-yl}-methanol]",0.05 µM,0.06 µM,–
"CCCc1cc2c(N3CCn4c(nnc4C(F)(F)F)C3)nc(-c3nc(CCO)no3)nc2s1 [Example 4-30, 2-{5-[6-Propyl-4-(3-trifluoromethyl-5,6-dihydro-8H-[1,2,4]triazolo[4,3-a]pyrazin-7-yl)thieno[2,3-d]pyrimidin-2-yl]-[1,2,4]oxadiazol-3-yl}ethanol]",6.5 µM,0.83 µM,–
"CCCc1cc2c(N3CCn4c(nnc4C(F)(F)F)C3)nc(N3CC[C@H](C(=O)NC)C3)nc2s1 [Example 1-87, (S)-1-[6-Propyl-4-(3-trifluoromethyl-5,6-dihydro-8H-[1,2,4]triazolo[4,3-a]pyrazin-7-yl)-thieno[2,3-d]pyrimidin-2-yl]-pyrrolidine-3-carboxylic acid methylamide]",0.067 µM,0.011 µM,–
"CCCc1cc2c(N3CCn4c(nnc4C(F)(F)F)C3)nc(OCCNCC(=O)O)nc2s1 [Example 3-55, {2-[6-Propyl-4-(3-trifluoromethyl-5,6-dihydro-8H-[1,2,4]triazolo[4,3-a]pyrazin-7-yl)-thieno[2,3-d]pyrimidin-2-yloxy]-ethylamino}-acetic acid]",0.15 µM,0.025 µM,–
"CCCc1cc2c(N3CCn4c(nnc4C(F)(F)F)C3)nc(OCCNC(=O)CN)nc2s1 [Example 3-65, 2-Amino-N-{2-[6-propyl-4-(3-trifluoromethyl-5,6-dihydro-8H-[1,2,4]triazolo[4,3-a]pyrazin-7-yl)-thieno[2,3-d]pyrimidin-2-yloxy]-ethyl}-acetamide]",0.18 µM,0.013 µM,–

# — patent US20110166121A1 (LG LIFE SCIENCES LTD., priority 2008, published 2011)
